From publication PMC5007854, “β-Nitrostyrenes as Potential Anti-leishmanial Agents” (Frontiers in Microbiology, 2016)
Values after ≈ are worked out from the molar mass of the structure shown. Where two headings read alike, the source gives them in different places.

Legend:
[1] = system: L. donovani promastigotes; assay: Anti-leishmanial screening at 100 μM, parasite viability by microscopy; assay type: cell-based, Leishmania donovani; details: for Anti-leishmanial activity, in words (SAR discussion): L. donovani promastigotes
Procedure: L. donovani parasites (MHOM/IN/83/AG83) were maintained in vivo in BALB/c mice. Promastigotes were routinely cultured at 22°C in medium M199 supplemented with 10% heat inactivated fetal bovine serum (FBS, HiMedia Laboratories, Mumbai, India), penicillin 100 (IU/ml), streptomycin (100 μg/ml). Log phase promastigotes were sub-cultured every 72–96 h, the inoculum being 2 × 10^6 cells/ml (Afrin et al., [2002]).
Nitrostyrine series were screened for their antileishmanial activity against L. donovani promastigotes in vitro. Promastigotes of L. donovani (2 × 10^6 cells/mL) in M199 medium were incubated at 22°C for 72 h with each compound at a concentration of 100 μM. Amphotericin B (AmB) served as reference drug, 0.2% DMSO was used as solvent control. Parasites with media alone were taken as control. Parasite viability was determined microscopically after 72 h (Islamuddin et al., [2014b]).

[2] = system: Aspergillus fumigatus ATCC 16424; assay: Broth microdilution antifungal susceptibility (MIC/MFC); assay type: cell-based; details: for MIC / MFC: Aspergillus fumigatus; for MIC: ATCC16424, 48 h
Text: (§1) One reference each of the following species was used for their in vitro susceptibility to β-nitrostyrene in this study: Staphylococcus aureus ATCC 29213, Staphylococcus epidermidis ATCC 14990, Escherichia coli ATCC 25922, Pseudomonas aeruginosa ATCC 27853, Candida albicans ATCC 90028, Candida glabrata ATCC 90030, Aspergillus fumigatus ATCC 16424 and Aspergillus niger ATCC 16404. These strains were procured from the American Type Culture Collection (ATCC, Manassas, VA, USA).
(§2) The antibacterial and antifungal activities of the β-nitrostyrenes were performed by broth microdilution methods as per the guidelines of Clinical and Laboratory Standard Institute (Wayne, [1998], [2008a],[b],[c]) by using Mueller-Hinton broth (MHB; Becton-Dickinson, Cockeysville, MD, USA) supplemented with calcium (25 mg/L) and magnesium (12.5 mg/L) for bacterial strains while as RPMI 1640 medium with L-glutamine and without sodium bicarbonate, buffered to pH 7.0 with 0.165 M 3-(N-morpholino) propanesulfonic acid (MOPS; both from Sigma) was used for fungal strains. Stock solutions were prepared in 100% dimethyl sulfoxide (DMSO; Sigma; distilled water was used for ciprofloxacin), with a final DMSO concentration of 1% (vol. per vol.) and two-fold serial dilutions were prepared in media in amounts of 100 μL per well in 96-well U-bottom microtiter plates (Tarsons, Kolkata, India) to yield twice the final concentration required for testing, which ranged from 64 to 0.12 μg/mL for β-nitrostyrenes and 16 to 0.03 μg/mL for ciprofloxacin as well as amphotericin B. Stock inoculum suspensions of the bacteria, Candida species and Aspergillus species were prepared in sterile normal saline (0.85%) containing 0.05% polysorbate 20 (NST) from overnight (3 to 5-day old for Aspergillus species) strains grown on Trypticase soy agar (TSA; Becton-Dickinson) and potato dextrose agar (Difco Laboratories, Detroit, MI, USA) respectively at 35°C. Inocula were verified for each assay by plating onto agar plates for colony enumeration. These suspensions were further diluted in the respective test medium and a 100 μl volume of this diluted inoculum was added to each well of the plate, resulting in a final inoculum concentration of approximately 5 × 10^5 CFU/mL for bacter1ia, (Wayne, [2008a]) approximately 2.5 × 10^4 CFU/ml for Candida species (Pfaller et al., [2004]) while as 0.4 × 10^4 to 5 × 10^4 CFU/mL for Aspergillus species (Wayne, [2008c]). Untreated growth control, vehicle control (DMSO) and sterility control wells were included for each isolate tested. Ciprofloxacin and amphotericin B served as the standard drug controls for bacterial and fungal strains, respectively. The microtiter plates were incubated at 35°C for 24 h for bacterial strains and 48 h for fungal strains. The plates were read visually and the minimum inhibitory concentration (MIC) was defined as the lowest concentration of test sample that prevented visible growth with respect to the growth control.
(§3) The minimum bactericidal concentration (MBC) and minimum fungicidal concentration (MFC) were determined by plating 100 μl volumes on agar plates from the wells showing no visible growth (clear MIC well). The plates were incubated as described above in MIC measurements. […] All experiments were conducted twice in duplicates on separate occasions with freshly prepared inoculums and stock solutions.

[3] = system: Candida albicans ATCC 90028; assay: as above; assay type: cell-based; details: for MIC / MFC: Candida albicans; for MIC: ATCC90028, 48 h
Text: as §1, §2, §3

[4] = system: Candida glabrata ATCC 90030; assay: as above; assay type: cell-based; details: Nakaseomyces glabratus
Text: as §1, §2, §3

[5] = system: Aspergillus niger ATCC 16404; assay: as above; assay type: cell-based; details: for MIC / MFC: Aspergillus niger; for MIC: ATCC16404, 48 h
Text: as §1, §2, §3

[6] = system: Pseudomonas aeruginosa ATCC 27853; assay: Broth microdilution antibacterial susceptibility (MIC/MBC); assay type: cell-based; details: for MIC / MBC: Pseudomonas aeruginosa; for MIC: ATCC27853, 24 h
Text: as §1, §2, §3

[7] = system: Staphylococcus epidermidis ATCC 14990; assay: as above; assay type: cell-based; details: for MIC / MBC: Staphylococcus epidermidis; for MIC: ATCC14990, 24 h
Text: as §1, §2, §3

[8] = system: Staphylococcus aureus ATCC 29213; assay: as above; assay type: cell-based; details: Staphylococcus aureus
Text: as §1, §2, §3

[9] = system: Escherichia coli ATCC 25922; assay: as above; assay type: cell-based; details: for MIC / MBC: Escherichia coli; for MIC: ATCC25922, 24 h
Text: as §1, §2, §3

[10] = broth microdilution, 35°C, 48 h
[11] = broth microdilution, 35°C, 24 h

In the case of C/C(=C\[N+](=O)[O-])c1ccc(O)cc1 [Compound 25, 4-((E)-1-nitroprop-1-en-2-yl)phenol], the “Anti-leishmanial activity, in words (SAR discussion)” value [1] is reported as “loss of activity” and the melting point is reported as 88 to 90 °C.

With CC/C(=C\c1ccc(OC)c(OC)c1)[N+](=O)[O-] [Compound 24, 1,2-dimethoxy-4-((E)-2-nitrobut-1-enyl) benzene] the “Anti-leishmanial activity, in words (SAR discussion)” value [1] was “inactive” and the melting point was 78 to 80 °C.

C/C(=C\c1c[nH]c2ccccc12)[N+](=O)[O-] [Compound 29, 3-((E)-2-nitroprop-1-enyl)-1H-indole] gave an MIC ([2]; broth microdilution, 35°C, 48 h, read-out: MIC, Af ATCC 16424) of 16 µg/mL (≈ 79.1 µM), an MFC ([2]; ATCC16424, ≥99.9% reduction of original inoculum, read-out: MFC, Af ATCC 16424) of 16 µg/mL (≈ 79.1 µM) and an MIC ([3]; broth microdilution, 35°C, 48 h, read-out: MIC, Ca ATCC 90028) of 64 µg/mL (≈ 316 µM). The MFC ([3]; ATCC90028, ≥99.9% reduction of original inoculum, read-out: MFC, Ca ATCC 90028) was 64 µg/mL (≈ 316 µM), the MIC ([4]; ATCC90030, 48 h, broth microdilution, 35°C, 48 h, read-out: MIC, Cg ATCC 90030) was 8 µg/mL (≈ 39.6 µM) and the MFC ([4]; ATCC90030, ≥99.9% reduction of original inoculum, read-out: MFC, Cg ATCC 90030) was 8 µg/mL (≈ 39.6 µM). For the same molecule, the MIC ([5]; broth microdilution, 35°C, 48 h, read-out: MIC, An ATCC 16404) was 8 µg/mL (≈ 39.6 µM), the MFC ([5]; ATCC16404, ≥99.9% reduction of original inoculum, read-out: MFC, An ATCC 16404) was 8 µg/mL (≈ 39.6 µM) and the MIC ([6]; broth microdilution, 35°C, 24 h, read-out: MIC, Pa ATCC 27853) was greater than 64 µg/mL. It also gave an MBC ([6]; ATCC27853, ≥99.9% reduction of original inoculum, read-out: MBC, Pa ATCC 27853) greater than 64 µg/mL, an MIC ([7]; broth microdilution, 35°C, 24 h, read-out: MIC, Se ATCC 14990) of 8 µg/mL (≈ 39.6 µM) and an MBC ([7]; ATCC14990, ≥99.9% reduction of original inoculum, read-out: MBC, Se ATCC 14990) of 8 µg/mL (≈ 39.6 µM). For the same molecule, the MIC ([8]; ATCC29213, 24 h, broth microdilution, 35°C, 24 h, read-out: MIC, Sa ATCC 29213) was 16 µg/mL (≈ 79.1 µM), the MBC ([8]; ATCC29213, ≥99.9% reduction of original inoculum, read-out: MBC, Sa ATCC 29213) was 16 µg/mL (≈ 79.1 µM) and the MIC ([9]; broth microdilution, 35°C, 24 h, read-out: MIC, Ec ATCC 25922) was greater than 64 µg/mL. It also gave an MBC ([9]; ATCC25922, ≥99.9% reduction of original inoculum, read-out: MBC, Ec ATCC 25922) greater than 64 µg/mL and a melting point of 182 to 184 °C.

For O=[N+]([O-])/C=C/c1ccc([N+](=O)[O-])cc1 [Compound 7, 1-nitro-4-((E)-2-nitrovinyl) benzene], the MIC ([2]; read-out: MIC, Af ATCC 16424, broth microdilution, 35°C, 48 h) was 4 to 8 µg/mL (≈ 20.6 to 41.2 µM), the MFC ([2]; ATCC16424, read-out: MFC, Af ATCC 16424) was 4 µg/mL (≈ 20.6 µM) and the “MIC, Af ATCC 16424” value [2, 10] was 4 µg/mL (≈ 20.6 µM). For the same molecule, the MIC ([3]; read-out: MIC, Ca ATCC 90028, broth microdilution, 35°C, 48 h) was 4 to 32 µg/mL (≈ 20.6 to 165 µM), the MFC ([3]; ATCC90028, read-out: MFC, Ca ATCC 90028) was 4 µg/mL (≈ 20.6 µM) and the “MIC, Ca ATCC 90028” value [3, 10] was 4 µg/mL (≈ 20.6 µM). The MFC ([4]; ATCC90030, read-out: MFC, Cg ATCC 90030) was 4 µg/mL (≈ 20.6 µM), the MIC ([5]; read-out: MIC, An ATCC 16404, broth microdilution, 35°C, 48 h) was 2 to 4 µg/mL (≈ 10.3 to 20.6 µM) and the MFC ([5]; ATCC16404, read-out: MFC, An ATCC 16404) was 2 µg/mL (≈ 10.3 µM). For the same molecule, the “MIC, An ATCC 16404” value [5, 10] was 2 µg/mL (≈ 10.3 µM), the MIC ([6]; read-out: MIC, Pa ATCC 27853, broth microdilution, 35°C, 24 h) was 16 to 32 µg/mL (≈ 82.4 to 165 µM) and the MBC ([6]; ATCC27853, read-out: MBC, Pa ATCC 27853) was 32 µg/mL (≈ 165 µM). The “MIC, Pa ATCC 27853” value [6, 11] was 16 µg/mL (≈ 82.4 µM), the MIC ([7]; read-out: MIC, Se ATCC 14990, broth microdilution, 35°C, 24 h) was 2 to 16 µg/mL (≈ 10.3 to 82.4 µM) and the MBC ([7]; ATCC14990, read-out: MBC, Se ATCC 14990) was 4 µg/mL (≈ 20.6 µM). The “MIC, Se ATCC 14990” value [7, 11] was 4 µg/mL (≈ 20.6 µM), the MBC ([8]; ATCC29213, read-out: MBC, Sa ATCC 29213) was 8 µg/mL (≈ 41.2 µM) and the MIC ([9]; read-out: MIC, Ec ATCC 25922, broth microdilution, 35°C, 24 h) was 16 to 32 µg/mL (≈ 82.4 to 165 µM). For the same molecule, the MBC ([9]; ATCC25922, read-out: MBC, Ec ATCC 25922) was 32 µg/mL (≈ 165 µM), the “MIC, Ec ATCC 25922” value [9, 11] was 16 µg/mL (≈ 82.4 µM) and the “Parasite viability after treatment” value ([1]; 100 μM, 72 h, phase contrast microscope) was “All the parasites were found to be dead”.
